Experiment [1] concerns BxPC-3 cells. In words: Cell viability assay (CellTiter Glo). It counts as cell-based. The following applies: Homo sapiens, 72 h. The protocol: BxPC-3 cells were grown in RPMI 1640 containing 10% FBS, 100 U/ml penicillin/streptomycin, 2 mM glutamine. All media and supplements were from Sigma-Aldrich. Cultures were routinely tested for Mycoplasma contamination. Treatments (Olaparib and BRCA2-Rad51 disruptors) were administered in culture medium supplemented with 0.6% DMSO. The same amount of DMSO was added to the control, untreated cultures.
Cell viability was assessed by CellTiter Glo, Luminescent Cell Viability Assay. Briefly, BxPC-3 cells (1×10^4/well) were plated in white 96-well plates with clear bottom and treated for 72 h with olaparib (10 μM) or with the BRCA2-Rad51 disruptors, given alone or in combination. After treatments, the plate was allowed to equilibrate at room temperature for 30 min and the CellTiter-Glo reactive was directly added to each well. The plate was kept on a shaker for 2 min to induce cell lysis and its luminescence was measured by using a Fluoroskan Ascent FL reader (Labsystems) using manufacturer's instructions.

The target of experiment [2] is T1, BRC4/RAD51 interaction (Homo sapiens, UniProt Q06609).
T1 construct: purchased Creative Biomart (Rad51); Life Technologies (BRC4 peptide)
T1 sequence (Q06609 1-339): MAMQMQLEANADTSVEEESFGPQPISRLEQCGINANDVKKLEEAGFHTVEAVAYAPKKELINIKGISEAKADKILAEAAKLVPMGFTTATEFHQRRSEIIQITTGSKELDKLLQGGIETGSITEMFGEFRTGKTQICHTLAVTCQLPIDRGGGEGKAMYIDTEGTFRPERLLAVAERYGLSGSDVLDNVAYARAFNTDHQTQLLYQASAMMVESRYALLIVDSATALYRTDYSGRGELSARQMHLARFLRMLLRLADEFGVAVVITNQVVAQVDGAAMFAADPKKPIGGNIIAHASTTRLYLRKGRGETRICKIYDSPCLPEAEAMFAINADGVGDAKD
In words: Competitive ELISA assay, disruption of BRC4/RAD51 interaction. The following applies: human Rad51, biotinylated BRC4 peptide. It counts as binding. The protocol:
A competitive ELISA screening assay using biotinylated BRC4 peptide to disrupt the BRC4/RAD51 interaction was performed by modifying the method described by Rajendra et al. (Nucleic Acids Res. 38 (2010) 82-96). BRC4-biotinylated peptide (N-term Biotin[…] from Life Technologies) was used to coat 384-well plates (Nunc). After washing with PBS containing 0.05% Tween-20 (PBST), and blocking with the solution BSA 1%/PBST, overnight hybridization with human Rad51 protein (NP_002866 Creative Biomart, NY) was performed. Test compounds were added in dose-response from […] in triplicate with constant DMSO 1%. Antibody raised against Rad51 (Millipore) and HRP-secondary antibody staining to develop the 3,30,5,50-tetramethyllbenzidine signal (Sigma) quenched with 1M HCl was used as the assay readout. Colorimetric measure was read on Victor5 (PerkinElmer) plate Reader. BRC4 and Rad51 were included in the assay as positive control. Results were analyzed using GraphPad Software.
A general note: An ELISA detects its analyte on a solid surface through an enzyme-linked reagent.

The term EC50 denotes the concentration needed to bring the measured effect to its halfway point. As to `O=C(O)CCC(=O)N1N=C(c2c(-c3ccccc3)c3cc(Cl)ccc3[nH]c2=O)CC1c1ccc(-c2ccc(Cl)cc2)cc1` (stereo not shown) [d.37, 4-[5-(6-chloro-2-oxo-4-phenyl-1H-quinolin-3-yl)-3-[4-(4-chlorophenyl)phenyl]-3,4-dihydropyrazol-2-yl]-4-oxo-butanoic acid], the EC50 was found to be 41.5 µM in experiment [1] and 25 µM in experiment [2].

In the case of `CCC(=O)N1N=C(c2c(-c3ccccc3)c3cc(Cl)ccc3[nH]c2=O)CC1c1ccccc1` (stereo not shown) [d.48, 6-chloro-4-phenyl-3-(3-phenyl-2-propanoyl-3,4-dihydropyrazol-5-yl)-1H-quinolin-2-one], the EC50 in experiment [1] is 13.7 µM; in experiment [2], 24 µM. On the same counts, the results for `CCn1ccc2cc(C3CC(c4c(-c5ccccc5)c5cc(Cl)ccc5[nH]c4=O)=NN3C(=O)CCC(=O)O)ccc21` (stereo not shown) [d.24, 4-[5-(6-chloro-2-oxo-4-phenyl-1H-quinolin-3-yl)-3-(1-ethylindol-5-yl)-3,4-dihydropyrazol-2-yl]-4-oxo-butanoic acid] are over 40 µM and 10 µM. For `CC(C)(C)c1ccc(C2CC(c3c(-c4ccccc4)c4cc(Cl)ccc4[nH]c3=O)=NN2C(=O)CCC(=O)O)cc1` (stereo not shown) [d.16, 4-[3-(4-tert-butylphenyl)-5-(6-chloro-2-oxo-4-phenyl-1H-quinolin-3-yl)-3,4-dihydropyrazol-2-yl]-4-oxo-butanoic acid], the values for the EC50 in experiment [1] and in experiment [2] were 71.2 µM and over 100 µM, respectively. `CC(=O)N1N=C(c2c(-c3ccccc3)c3cc(Cl)ccc3[nH]c2=O)CC1c1ccc(C(C)(C)C)cc1` (stereo not shown) [d.17, 3-[2-acetyl-3-(4-tert-butylphenyl)-3,4-dihydropyrazol-5-yl]-6-chloro-4-phenyl-1H-quinolin-2-one]: the EC50 in experiment [1] and in experiment [2] was 15 µM throughout. As to `CCCn1cc2cc(C3CC(c4c(-c5ccccc5)c5cc(Cl)ccc5[nH]c4=O)=NN3C(=O)CCC(=O)O)ccc2n1` (stereo not shown) [d.35, 4-[5-(6-chloro-2-oxo-4-phenyl-1H-quinolin-3-yl)-3-(2-propylindazol-5-yl)-3,4-dihydropyrazol-2-yl]-4-oxo-butanoic acid], the EC50 in experiment [1] was 62.6 µM; in experiment [2], over 100 µM. On the same counts, the results for `NCCC(=O)N1N=C(c2c(-c3ccccc3)c3cc(Cl)ccc3[nH]c2=O)CC1c1ccc(F)cc1` (stereo not shown) [d.4, 3-[2-(3-aminopropanoyl)-3-(4-fluorophenyl)-3,4-dihydropyrazol-5-yl]-6-chloro-4-phenyl-1H-quinolin-2-one] are 7.6 µM and over 100 µM.

For the compound `CCCn1cc(-c2ccc(C3CC(c4c(-c5ccccc5)c5cc(Cl)ccc5[nH]c4=O)=NN3C(=O)CCC(=O)O)cc2)cn1` (stereo not shown) [d.43, 4-[5-(6-chloro-2-oxo-4-phenyl-1H-quinolin-3-yl)-3-[4-(1-propylpyrazol-4-yl)phenyl]-3,4-dihydropyrazol-2-yl]-4-oxo-butanoic acid], the EC50 worked out at 74.2 µM in experiment [1] and 65 µM in experiment [2].

With `CC(=O)N1N=C(c2c(-c3ccccc3)c3cc(Cl)ccc3[nH]c2=O)CC1c1ccc2c(ccn2C)c1` (stereo not shown) [d.23, 3-[2-acetyl-3-(1-methylindol-5-yl)-3,4-dihydropyrazol-5-yl]-6-chloro-4-phenyl-1H-quinolin-2-one], the EC50 came out at 4.8 µM in experiment [1] and 18 µM in experiment [2]. On the same counts, the results for `COc1ccc(-c2c(C3=NN(C(=O)CCC(=O)O)C(c4ccc(F)cc4)C3)c(=O)[nH]c3ccc(Cl)cc23)cc1` (stereo not shown) [d.19, 4-[5-[6-chloro-4-(4-methoxyphenyl)-2-oxo-1H-quinolin-3-yl]-3-(4-fluorophenyl)-3,4-dihydropyrazol-2-yl]-4-oxo-butanoic acid] are 76 µM and over 100 µM. On the same counts, the results for `CCn1cc2cc(C3CC(c4c(-c5ccccc5)c5cc(Cl)ccc5[nH]c4=O)=NN3C(C)=O)ccc2n1` (stereo not shown) [d.30, 3-[2-acetyl-3-(2-ethylindazol-5-yl)-3,4-dihydropyrazol-5-yl]-6-chloro-4-phenyl-1H-quinolin-2-one] are 16.8 µM and over 100 µM. On the same counts, the results for `COc1ccc(C2CC(c3c(-c4ccccc4)c4cc(Cl)ccc4[nH]c3=O)=NN2C(=O)CCC(=O)O)cc1F` (stereo not shown) [d.18, 4-[5-(6-chloro-2-oxo-4-phenyl-1H-quinolin-3-yl)-3-(3-fluoro-4-methoxy-phenyl)-3,4-dihydropyrazol-2-yl]-4-oxo-butanoic acid] are 73 µM and over 100 µM. As to `CC(=O)N1N=C(c2c(-c3ccccc3)c3cc(Cl)ccc3[nH]c2=O)CC1c1ccncc1` (stereo not shown) [d.97, 3-(1-acetyl-5-(pyridin-4-yl)-4,5-dihydro-1H-pyrazol-3-yl)-6-chloro-4-phenylquinolin-2 (1H)-one], the EC50 in experiment [1] turned out to be 24.3 µM; in experiment [2], 60 µM. On the same counts, the results for `O=C(O)CCC(=O)N1N=C(c2c(-c3ccccc3)c3cc(Cl)ccc3[nH]c2=O)CC1c1ccco1` (stereo not shown) [d.20, 4-[5-(6-chloro-2-oxo-4-phenyl-1H-quinolin-3-yl)-3-(2-furyl)-3,4-dihydropyrazol-2-yl]-4-oxo-butanoic acid] are over 100 µM and over 100 µM. Consider `O=C(O)CCC(=O)N1N=C(c2c(-c3ccccc3)c3cc(Cl)ccc3[nH]c2=O)CC1c1ccc(F)cc1` (stereo not shown) [d.1, 4-[5-(6-chloro-2-oxo-4-phenyl-1H-quinolin-3-yl)-3-(4-fluorophenyl)-3,4-dihydropyrazol-2-yl]-4-oxo-butanoic acid], for which the EC50 in experiment [1] is over 50 µM; in experiment [2], 38 µM. On the same counts, the results for `CC(=O)N1N=C(c2c(-c3ccccc3)c3cc(Cl)ccc3[nH]c2=O)CC1c1ccccc1` (stereo not shown) [d.47, 3-(2-acetyl-3-phenyl-3,4-dihydropyrazol-5-yl)-6-chloro-4-phenyl-1H-quinolin-2-one] are 29.7 µM and 19 µM. Consider `O=C(O)CCC(=O)N1N=C(c2c(Cc3ccccc3)c3cc(Cl)ccc3[nH]c2=O)CC1c1ccc(Cl)cc1` (stereo not shown) [d.55, 4-[5-(4-benzyl-6-chloro-2-oxo-1H-quinolin-3-yl)-3-(4-chlorophenyl)-3,4-dihydropyrazol-2-yl]-4-oxo-butanoic acid], for which the EC50 in experiment [1] amounted to 23.2 µM; in experiment [2], 70 µM. As for `CC(=O)N1N=C(c2c(-c3ccccc3)c3cc(Cl)ccc3[nH]c2=O)CC1c1ccc2c(cnn2C)c1` (stereo not shown) [d.27, 3-[2-acetyl-3-(1-methylindazol-5-yl)-3,4-dihydropyrazol-5-yl]-6-chloro-4-phenyl-1H-quinolin-2-one], the EC50 in experiment [1] came to 21 µM; in experiment [2], 9 µM.

Turning to `CC(=O)N1N=C(c2c(-c3ccccc3)c3cc(Cl)ccc3[nH]c2=O)CC1c1ccco1` (stereo not shown) [d.21, 3-[2-acetyl-3-(2-furyl)-3,4-dihydropyrazol-5-yl]-6-chloro-4-phenyl-1H-quinolin-2-one], the results for the EC50 in experiment [1] and in experiment [2] were 23 µM and over 100 µM, respectively.

In experiment [2], `O=C(O)CCC(=O)N1N=C(c2c(-c3ccccc3)c3cc(Cl)ccc3[nH]c2=O)CC1c1ccccn1` (stereo not shown) [d.99, 4-(3-(6-chloro-2-oxo-4-phenyl-1,2-dihydroquinolin-3-yl)-5-(pyridin-2-yl)-4,5-dihydro-1H-pyrazol-1-yl)-4-oxobutanoic acid] returned an EC50 of 190 µM. In experiment [2], `COc1ccc(C2CC(c3c(Cc4ccccc4)c4cc(Cl)ccc4[nH]c3=O)=NN2C(=O)CCC(=O)O)cc1` (stereo not shown) [d.61, 4-[5-(4-benzyl-6-chloro-2-oxo-1H-quinolin-3-yl)-3-(4-methoxyphenyl)-3,4-dihydropyrazol-2-yl]-4-oxo-butanoic acid] had an EC50 of over 100 µM.
